Test results from US20050215555A1, “Inhibitors of 5-HT2A receptor” (priority 2003, published 2005).

Tests used:
5-HT1A = target: T1, 5-HT1A (Homo sapiens, UniProt P08908); assay: Radioligand displacement binding (3H-8-OH-DPAT), SPA or filter binding; conditions: recombinant human receptor
T1 construct: expressed in transfected cells; host or cells: CHO or HEK293
T1 sequence (P08908 1-422): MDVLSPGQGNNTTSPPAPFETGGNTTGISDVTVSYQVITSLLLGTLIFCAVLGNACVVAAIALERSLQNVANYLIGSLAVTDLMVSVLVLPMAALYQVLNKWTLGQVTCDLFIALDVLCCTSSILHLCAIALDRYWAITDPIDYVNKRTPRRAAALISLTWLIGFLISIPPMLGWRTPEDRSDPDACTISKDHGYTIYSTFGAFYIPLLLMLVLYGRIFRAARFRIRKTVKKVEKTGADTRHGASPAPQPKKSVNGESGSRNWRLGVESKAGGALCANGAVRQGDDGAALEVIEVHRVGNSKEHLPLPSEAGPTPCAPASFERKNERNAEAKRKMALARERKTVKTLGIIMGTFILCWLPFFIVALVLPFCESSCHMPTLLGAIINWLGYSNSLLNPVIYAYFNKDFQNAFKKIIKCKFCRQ
Method: (§1) The affinity constants of compounds were determined using recombinant human serotonin receptors stably expressed in fibroblast cell lines (CHO or HEK293), measuring the ability of the compounds to displace radio-labelled tracers using scintillation proximity assays or filter binding assays. For 5-HT1B , 5-HT2B and 5-HT2C receptor binding studies ^3H-LSD was used as radio ligand, for 5-HT2 A and 5-HT6 ^3H-5-HT was used as tracer, while the binding constant to 5-HT1A was determined using ^3H-8-OH-DPAT. The non-selective serotonin receptor antagonist mianserine was used as reference substance.
(§2) The calculation of the Ki values for the inhibitors was performed by use of Activity Base. The Ki value is calculated from IC50 using the Cheng Prushoff equation (with reversible inhibition that follows the Michaelis-Menten equation): […] [Cheng, Y. C.; Prushoff, W. H. Biochem. Pharmacol. 1973, 22, 3099-3108].

5-HT1B = target: T2, 5-HT1B (Homo sapiens, UniProt P28222); assay: Radioligand displacement binding (3H-LSD), SPA or filter binding; conditions: recombinant human receptor
T2 construct: expressed in transfected cells; host or cells: CHO or HEK293
T2 sequence (P28222 whole entry): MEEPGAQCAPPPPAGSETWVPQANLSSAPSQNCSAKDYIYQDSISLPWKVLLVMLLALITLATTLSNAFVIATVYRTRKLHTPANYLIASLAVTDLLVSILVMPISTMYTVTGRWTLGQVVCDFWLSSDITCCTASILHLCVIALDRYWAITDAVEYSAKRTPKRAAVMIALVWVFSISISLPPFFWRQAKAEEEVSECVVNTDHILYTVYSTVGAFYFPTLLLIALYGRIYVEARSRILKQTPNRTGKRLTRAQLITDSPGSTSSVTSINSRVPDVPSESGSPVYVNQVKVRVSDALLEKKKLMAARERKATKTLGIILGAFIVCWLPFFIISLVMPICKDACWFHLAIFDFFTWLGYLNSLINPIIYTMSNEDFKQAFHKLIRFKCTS
Method: as §1, §2

5-HT2B = target: T3, 5-HT2B (Homo sapiens, UniProt P41595); assay: as above; conditions: recombinant human receptor
T3 construct: expressed in transfected cells; host or cells: CHO or HEK293
T3 sequence (P41595 whole entry): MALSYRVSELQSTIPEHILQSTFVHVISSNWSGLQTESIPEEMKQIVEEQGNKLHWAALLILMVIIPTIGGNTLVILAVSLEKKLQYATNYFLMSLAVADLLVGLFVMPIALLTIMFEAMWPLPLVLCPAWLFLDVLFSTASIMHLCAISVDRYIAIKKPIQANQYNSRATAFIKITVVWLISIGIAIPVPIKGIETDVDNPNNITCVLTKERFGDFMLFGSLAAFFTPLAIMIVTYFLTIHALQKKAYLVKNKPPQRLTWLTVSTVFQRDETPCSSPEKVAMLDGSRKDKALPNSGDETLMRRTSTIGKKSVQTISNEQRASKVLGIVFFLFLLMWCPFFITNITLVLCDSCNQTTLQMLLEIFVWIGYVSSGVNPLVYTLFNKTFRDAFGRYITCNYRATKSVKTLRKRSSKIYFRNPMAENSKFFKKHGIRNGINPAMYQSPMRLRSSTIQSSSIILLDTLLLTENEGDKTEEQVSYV
Method: as §1, §2

5-HT6 = target: T4, 5-HT6 (Homo sapiens, UniProt P50406); assay: Radioligand displacement binding (3H-5-HT), SPA or filter binding; conditions: recombinant human receptor
T4 construct: expressed in transfected cells; host or cells: CHO or HEK293
T4 sequence (P50406 whole entry): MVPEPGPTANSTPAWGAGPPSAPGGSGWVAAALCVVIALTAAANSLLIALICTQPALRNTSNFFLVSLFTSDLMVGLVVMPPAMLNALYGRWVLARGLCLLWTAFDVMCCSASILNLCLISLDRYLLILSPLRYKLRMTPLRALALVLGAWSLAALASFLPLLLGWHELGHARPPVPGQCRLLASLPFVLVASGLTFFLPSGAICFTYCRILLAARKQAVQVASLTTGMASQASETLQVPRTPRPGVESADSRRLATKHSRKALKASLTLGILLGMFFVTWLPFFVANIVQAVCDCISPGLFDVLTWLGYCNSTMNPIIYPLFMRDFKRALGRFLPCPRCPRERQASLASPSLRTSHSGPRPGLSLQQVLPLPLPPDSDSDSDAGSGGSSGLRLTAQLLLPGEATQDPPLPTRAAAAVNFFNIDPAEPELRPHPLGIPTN
Method: as §1, §2

5-HT2C [1] = target: T5, 5-HT2C (Homo sapiens, UniProt P28335); assay: FLIPR based assay, effect on 10 nM 5-HT induced Ca2+-currents; type: cell-based; conditions: functional FLIPR assays
T5 sequence (P28335 33-458): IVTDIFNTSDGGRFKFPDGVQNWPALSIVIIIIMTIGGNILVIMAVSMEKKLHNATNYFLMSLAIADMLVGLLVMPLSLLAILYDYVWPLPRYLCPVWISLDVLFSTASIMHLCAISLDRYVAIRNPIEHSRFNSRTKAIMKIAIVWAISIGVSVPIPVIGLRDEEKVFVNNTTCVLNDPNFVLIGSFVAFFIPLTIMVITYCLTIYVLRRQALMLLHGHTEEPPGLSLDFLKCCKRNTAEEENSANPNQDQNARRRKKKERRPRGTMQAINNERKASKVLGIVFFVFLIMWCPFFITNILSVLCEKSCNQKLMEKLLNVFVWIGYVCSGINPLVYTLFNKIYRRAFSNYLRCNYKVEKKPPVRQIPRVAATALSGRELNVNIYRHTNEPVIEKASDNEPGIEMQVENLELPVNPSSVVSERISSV
Method: The activity at 5-HT2C receptors was studied in a FLIPR based assay, measuring the effect of compounds on 10 nM 5-HT induced Ca^2+-currents.

5-HT2A [2] = target: T6, 5-HT2A (Homo sapiens, UniProt P28223); assay: FLIPR functional assay (primary screening and IC50 determination), inhibition of 5-HT evoked peak response; type: cell-based; parameters: expressed in transfected cells; host or cells: CHO; conditions: CHO cells expressing 5-HT2A, 15 min pre-incubation, Ki calculated from IC50 (Cheng Prushoff)
T6 sequence (P28223 whole entry): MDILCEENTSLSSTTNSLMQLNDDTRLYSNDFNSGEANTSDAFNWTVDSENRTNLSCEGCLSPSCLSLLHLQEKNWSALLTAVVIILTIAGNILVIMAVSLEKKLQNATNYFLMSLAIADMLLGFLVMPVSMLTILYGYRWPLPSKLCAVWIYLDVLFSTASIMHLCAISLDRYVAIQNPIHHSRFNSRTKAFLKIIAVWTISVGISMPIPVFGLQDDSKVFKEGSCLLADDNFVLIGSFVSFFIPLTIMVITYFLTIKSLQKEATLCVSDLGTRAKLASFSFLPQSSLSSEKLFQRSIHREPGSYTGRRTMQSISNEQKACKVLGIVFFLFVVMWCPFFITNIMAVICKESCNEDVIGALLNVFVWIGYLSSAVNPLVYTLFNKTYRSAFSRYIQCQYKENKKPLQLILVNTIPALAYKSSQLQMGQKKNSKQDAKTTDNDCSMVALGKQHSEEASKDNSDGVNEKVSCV
Method: Primary screening and IC50 determination
CHO cells expressing 5-HT2A receptors seeded in 384 well plates are pre-loaded with Fluo-4AM fluorescent dye and then incubated with compound (10 μM for primary screen) for 15 min. Fluorescent intensity is recorded using a Fluorometric imaging plate reader (FLIPR384, Molecular Devices) and inhibition of the peak response evoked by 5-HT (EC70 concentration) is calculated.
IC50 determinations are performed utilizing the same finctional assay as described for primary screening (15 min antagonist compound pre-incubation), applying the compounds in the dose range of 3 nM to 10 μM.
as §2

5-HT2C [3] = target: T5, 5-HT2C; assay: Radioligand displacement binding (3H-LSD), SPA or filter binding; parameters: expressed in transfected cells; host or cells: CHO or HEK293; conditions: recombinant human receptor
Method: as §1, §2

5-HT2A [4] = target: T6, 5-HT2A; assay: Radioligand displacement binding (3H-5-HT), SPA or filter binding; parameters: expressed in transfected cells; host or cells: CHO or HEK293
Method: as §1, §2

[5] = equilibrium displacement binding, n=3, unit inferred, read-out: Ki values for the 5-HT2A receptor subtype
[6] = recombinant human receptor, 3H-5-HT, read-out: Binding Ki (nM) 5-HT2A

| Structure (SMILES) | Ki (5-HT1A) | Ki (5-HT1B) | Ki (5-HT2B) | Ki (5-HT6) | selectivity at 5-HT2A versus the 5-HT2C receptor in terms of efficacy (5-HT2C [1]) | Ki (5-HT2A [2]) | Ki (5-HT2C [3]) | Ki (5-HT2A [4]; [5]) | Ki (5-HT2A [4]; [6]) |
| --- | --- | --- | --- | --- | --- | --- | --- | --- | --- |
| c1ccc(CCN2CCC(c3nc(-c4ccccc4)c4ccccn34)CC2)cc1 [Example 2] | > 1000 nM | > 1000 nM | 444 nM | > 1000 nM | highly selective | 20.6 nM | > 1000 nM | 6 nM | 5.9 nM |
| Cc1ccn2c(C3CCN(CCc4ccccc4)CC3)nc(-c3ccccc3)c2c1 [Example 4, 7-methyl-1-phenyl-3-[1-(2-phenylethyl)piperidin-4-yl]imidazo[1,5-a]pyridine] | > 1000 nM | > 1000 nM | 267 nM | > 1000 nM | highly selective | 8.2 nM | > 1000 nM | 14 nM | 13.6 nM |
